Measured values from US20240325394A1, “SALT AND CRYSTAL FORM OF NITROGEN-CONTAINING HETEROCYCLIC DERIVATIVE, PREPARATION METHOD THEREFOR AND APPLICATION THEREOF” (SHANGHAI HANSOH BIOMEDICAL CO., LTD., priority 2020, published 2024).
Where a name gives a salt, the structure may show the parent alone. Values belong to the molecule of their own block, whether it stands above or below them.

What was measured:
human KRAS G12C protein = target: T1, human KRAS G12C protein (Homo sapiens, UniProt P01116, G12C); test: Thermal shift: melting temperature of KRAS G12C protein; assay type: binding; conditions: KRAS G12C protein 5.37 μM with compound 10 μM, 1 hour
T1 construct: purchased Beijing SinoBiological Co., Ltd. 12259-H07E2
Method: In this experiment, the thermal shift method was used to test the degree of change in the melting temperature (Tm) of the KRAS G12C protein before and after the binding of the compound, in order to characterize the ability of the compound to improve the stability of the KRAS G12C protein.
The specific experiment operation was as follows: • A solution containing […] (pH 7.5), 1 mM DTT, 5× SYPRO Orange and 150 mM NaCl was prepared as the experimental buffer, and a final concentration of 5.37 μM human KRAS G12C protein was added thereto. The reaction mixture was divided into 8 rows of PCR tubes, each 19.5 μL, and 0.5 μL of the test compound or DMSO were added respectively, so that the total reaction system was 20 μL, the final concentration of the compound was 10 μM, and 2.5% DMSO was set as the solvent control. After incubating at room temperature in the dark for 1 hour, the PCR tube was put into the PCR instrument, QuantStudio Software v1.3 was opened, and the melting temperature of KRAS G12C protein in different treatment groups was detected by melt curve function (heating from 25° C. to 95° C., 0.03° C./s).
The experimental data file of PCR instrument was imported into thermal shift software, and the melting temperature (Tm) of each treatment group was obtained, and the change value of melting temperature (ATm) was obtained by subtracting the Tm of DMSO solvent control group.

[1] = Thermodynamic solubility in different media (FaSSGF, FaSSIF, FeSSIF, water) at 37° C.; assay type: physicochemical; conditions: 24 hours
[2] = Solid stability (10 days), impurity increase by HPLC; assay type: physicochemical
[3] = Plasma stability, rat plasma; assay type: in vitro ADME; conditions: rat plasma, 37° C.
Method: (§1) Animal or human whole blood was collected, then the blood was put into a test tube containing anticoagulant, centrifuged at 3500 rpm for 10 min, and the upper layer of pale yellow plasma was collected. • 2) 10 μM of tested compound (m/M/V=C)
(§2) The compound was weighed, the stock solution was prepared with DMSO and the working solution was prepared with 100 mM phosphate buffer. • 3) 10 μM of positive control • (1) Propantheline (Propantheline Mr=449.4 Da)
(§3) • 1) 285 μL of plasma and 15 μL of 10 μM compound (tested compound) were added in turn in a 96-well plate, and incubated at 37° C. • 2) 40 μL was taken out at 0, 15, 30, 60, 90, 120 min, respectively, and 160 μL of acetonitrile termination solution containing internal standard was added. • 3) After centrifugation (3500 rpm, 10 min), 50 μL of supernatant was taken out, and then diluted with 50 μL DDH2O and injected to LC-MS/MS.
(§4) • instrument: Shimadzu LC-20 AD • chromatographic column: phenomenex Gemiu® C18 (50*4.6 mm, 5 μM particle size); • mobile phase: A: acetonitrile, B: 0.1% formic acid solution 0-8 min: 5% A→95% A, 2.0-2.1 min: 90% A→5% A; flow rate: 0.8 mL/min; running time: 5.0 min; injection volume: 5 μL.
(§5) • instrument: API4000 Liquid Chromatography-Mass Spectrometry, AB, USA; • the ion source was electrospray ionization source (ESI); • the temperature of dry gas (N2) was 500° C.; • electrospray voltage was 5500V; • the detection method was positive ion detection; • the scanning mode was selective response monitoring (MRM); • the scanning time was 0.1 s.

[4] = Plasma stability, dog plasma; assay type: in vitro ADME; conditions: dog plasma, 37° C.
Method: as §1, §2, §3, §4, §5

[5] = Solid stability of crystal form, XRPD after stress conditions; assay type: physicochemical
[6] = Plasma stability, mouse plasma; assay type: in vitro ADME; conditions: mouse
Method: as §1, §2, §3, §4, §5

[7] = Plasma stability, human plasma; assay type: in vitro ADME; conditions: human
Method: as §1, §2, §3, §4, §5

Tm (human KRAS G12C protein): 57.2 °C
SMILES: C=CC(=O)N1C[C@H](C)N(c2nc(=O)n(-c3c(SC)ccnc3C(C)C)c3nc(-c4c(O)cccc4F)c(F)cc23)C[C@H]1C [Embodiment 2, 4-((2S,5R)-4-acryloyl-2,5-dimethylpiperazin-1-yl)-6-fluoro-7-(2-fluoro-6-hydroxyphenyl)-1-(2-isopropyl-4-(methylthio)pyridin-3-yl)pyrido[2,3-d]pyrimidin-2(1H)-one]

SMILES: C=CC(=O)N1C[C@H](C)N(c2nc(=O)n(-c3c(SC)ccnc3C(C)C)c3nc(-c4c(N)ccc(Cl)c4F)c(Cl)cc23)C[C@H]1C [crystal form II of sulfate, P-4-((2S,5R)-4-acryloyl-2,5-dimethylpiperazin-1-yl)-7-(6-amino-3-chloro-2-fluorophenyl)-6-chloro-1-(2-isopropyl-4-(methylthio)pyridin-3-yl)pyrido[2,3-d]pyrimidin-2(1H)-one]
Solubility ([1]; FaSSGF): 386.5 µg/mL | Solubility ([1]; FaSSIF): 150.3 µg/mL | Solubility ([1]; FeSSIF): 383.5 µg/mL | Solubility ([1]; H2O): 13.2 µg/mL | Stability of solid (10 days) (impurity increase %) ([2]; 50° C. & 75% RH, HPLC peak area normalization): 0.15% | Stability of solid (10 days) (impurity increase %) ([2]; 60° C., HPLC peak area normalization): 0.91% | Stability of solid (10 days) (impurity increase %) ([2]; 92.5% RH, HPLC peak area normalization): 0.56% | Stability of solid (10 days) (impurity increase %) ([2]; Light (5000±500 lux), HPLC peak area normalization): 1.12% | Solid stability (in words) ([2]; light, high humidity, high temperature and high humidity conditions): relatively stable

SMILES: C=CC(=O)N1CCN(c2nc(=O)n(-c3c(SC)ccnc3C(C)C)c3nc(-c4c(O)cccc4F)c(F)cc23)[C@@H](C)C1 [Embodiment 1, 4-((S)-4-Acryloyl-2-methylpiperazin-1-yl)-6-fluoro-7-(2-fluoro-6-hydroxyphenyl)-1-(2-isopropyl-4-(methylthio)pyridin-3-yl)pyrido[2,3-d]pyrimidin-2(1H)-one]
Tm (human KRAS G12C protein): 60.2 °C

SMILES: CC[C@H](C)C(=O)O[C@H]1C[C@@H](C)C=C2C=C[C@H](C)[C@H](CC[C@@H]3C[C@@H](O)CC(=O)O3)[C@H]21 [Lovastatin, reference compound]
t1/2 [3]: 6.69 min | Residual rate (%) 0 min ([3]; 0 min): 100.00% | Residual rate (%) 15 min ([3]; 15 min): 21.15% | Residual rate (%) 30 min ([3]; 30 min): 1.77% | Residual rate (%) 60 min ([3]; 60 min): 0.36% | Residual rate (%) 120 min ([3]; 120 min): 0.30% | t1/2 [4]: 80.22 min | Residual rate (%) 0 min ([4]; 0 min): 100.00% | Residual rate (%) 15 min ([4]; 15 min): 95.25% | Residual rate (%) 30 min ([4]; 30 min): 95.45% | Residual rate (%) 60 min ([4]; 60 min): 75.66% | Residual rate (%) 120 min ([4]; 120 min): 36.25%

SMILES: C=CC(=O)N1C[C@H](C)N(c2nc(=O)n(-c3c(SC)ccnc3C(C)C)c3nc(-c4c(N)ccc(Cl)c4F)c(Cl)cc23)C[C@H]1C [Embodiment 13, 4-((2S,5R)-4-acryloyl-2,5-dimethylpiperazin-1-yl)-7-(6-amino-3-chloro-2-fluorophenyl)-6-chloro-1-(2-isopropyl-4-(methylthio)pyridin-3-yl)pyrido[2,3-d]pyrimidin-2(1H)-one]
Tm (human KRAS G12C protein): 58.0 °C

Tm (human KRAS G12C protein): 60.2 °C
SMILES: C=CC(=O)N1CCN(c2nc(=O)n(-c3c(SC)ccnc3C(C)C)c3nc(-c4c(N)ccc(Cl)c4F)c(Cl)cc23)[C@@H](C)C1 [Embodiment 9, 4-((S)-4-acryloyl-2-methylpiperazin-1-yl)-7-(6-amino-3-chloro-2-fluorophenyl)-6-chloro-1-(2-isopropyl-4-(methylthio)pyridin-3-yl)pyrido[2,3-d]pyrimidin-2(1H)-one]

SMILES: C=CC(=O)N1C[C@H](C)N(c2nc(=O)n(-c3c(SC)ccnc3C(C)C)c3nc(-c4c(N)ccc(Cl)c4F)c(Cl)cc23)C[C@H]1C [Crystal form I of hydroxyethyl sulfonate, P-4-((2S,5R)-4-acryloyl-2,5-dimethylpiperazin-1-yl)-7-(6-amino-3-chloro-2-fluorophenyl)-6-chloro-1-(2-isopropyl-4-(methylthio)pyridin-3-yl)pyrido[2,3-d]pyrimidin-2(1H)-one]
Crystal form of hydroxyethyl sulfonate (XRPD) ([5]; High humidity (25° C., 75%, 10 days)): Crystal form I | Crystal form of hydroxyethyl sulfonate (XRPD) ([5]; High humidity (25° C., 90%, 10 days)): Crystal form I | Crystal form of hydroxyethyl sulfonate (XRPD) ([5]; High temperature (40° C., 30 days)): Crystal form I | Crystal form of hydroxyethyl sulfonate (XRPD) ([5]; High temperature (60° C., 30 days)): Crystal form I | Crystal form of hydroxyethyl sulfonate (XRPD) ([5]; Initial crystal form): Crystal form I | Crystal form of hydroxyethyl sulfonate (XRPD) ([5]; Light (≥1.2 × 10^6 lux-h, 10 days)): Crystal form I | Crystal form of hydroxyethyl sulfonate (XRPD) ([5]; Micropowder): Crystal form I | Solid stability (in words) ([5]; light, high humidity, high temperature, and micropowder conditions): relatively stable | Solubility ([1]; FaSSGF): 314.6 µg/mL | Solubility ([1]; FaSSIF): 158.8 µg/mL | Solubility ([1]; FeSSIF): 347.3 µg/mL | Solubility ([1]; H2O): 7.4 µg/mL | Stability of solid (10 days) (impurity increase %) ([2]; 50° C. & 75% RH): 0.30% | Stability of solid (10 days) (impurity increase %) ([2]; 60° C.): 0.26% | Stability of solid (10 days) (impurity increase %) ([2]; 92.5% RH): 0.01% | Stability of solid (10 days) (impurity increase %) ([2]; Light (5000±500 lux)): 0.27%

SMILES: C=CC(=O)N1CCN(c2nc(=O)n(-c3c(SC)ccnc3C(C)C)c3nc(-c4c(N)cccc4F)c(F)cc23)[C@@H](C)C1 [Embodiment 5, 4-((S)-4-acryloyl-2-methylpiperazin-1-yl)-7-(2-amino-6-fluorophenyl)-6-fluoro-1-(2-isopropyl-4-(methylthio)pyridin-3-yl)pyrido[2,3-d]pyrimidin-2(1H)-one]
Tm (human KRAS G12C protein): 64.4 °C

SMILES: CC(C)[N+](C)(CCOC(=O)C1c2ccccc2Oc2ccccc21)C(C)C [Propantheline, reference compound]
Residual rate (%) 0 min ([6]; 0 min, 0.5 μM): 100.00% | Residual rate (%) 15 min ([6]; 15 min, 0.5 μM): 79.79% | Residual rate (%) 30 min ([6]; 30 min, 0.5 μM): 48.66% | Residual rate (%) 60 min ([6]; 60 min, 0.5 μM): 23.39% | Residual rate (%) 120 min ([6]; 120 min, 0.5 μM): 6.66% | half-life at 0.5 μM ([6]; plasma): 27.7 min | Residual rate (%) 0 min ([7]; 0 min, 0.5 μM): 100.00% | Residual rate (%) 15 min ([7]; 15 min, 0.5 μM): 79.98% | Residual rate (%) 30 min ([7]; 30 min, 0.5 μM): 50.52% | Residual rate (%) 60 min ([7]; 60 min, 0.5 μM): 14.65% | Residual rate (%) 120 min ([7]; 120 min, 0.5 μM): 0.72% | half-life at 0.5 μM ([7]; plasma): 21 min
